What was measured:
[1] = tested on: pS6 in tumor tissue; set-up: method as in PMID 27186432; details: preclinical ref 21; cited from earlier work
[2] = Food effect on M2698 pharmacokinetics (fed vs fasted, single 240 mg dose); assay type: in vivo, human
Protocol: Food effect was analyzed using an analysis of variance (performed on natural log-transformed values of area under the plasma concentration-time curve from time zero to infinity (AUC0-∞) and maximum plasma concentration (Cmax) including sequence, period, and fasting/fed condition as effect).
Two single doses of 240 mg M2698 were administered 7 days apart (fed then fasted states or vice versa) to assess any effect of food on pharmacokinetics; these patients then continued treatment with either 240 mg/day or 320 mg/day M2698 as part of the dose expansion cohort. (240 mg, n=7; 320 mg, n=5)
^*Fed vs fasting following single dose of 240 mg M2698. Main analysis performed on natural log-transformed values of AUC0-∞ and Cmax including sequence, period and fasting/fed condition as effect. For one of the eight evaluable patients, no AUC under fed conditions was determined.

[3] = Plasma pharmacokinetics of M2698, non-compartmental; assay type: in vivo, human
Protocol: Plasma PK parameters on days 1 and 15 were calculated using non-compartmental methods.

[4] = Fasted, single dose of 240 mg, n=8
[5] = day 1 single dose, monotherapy 15 mg, n=3
[6] = day 1 single dose, monotherapy 30 mg, n=3
[7] = day 1 single dose, monotherapy 60 mg, n=6
[8] = day 1 single dose, monotherapy 75 mg, n=4
[9] = day 1 single dose, monotherapy 110 mg, n=3
[10] = day 1 single dose, monotherapy 160 mg, n=5
[11] = day 1 single dose, monotherapy 200 mg, n=3
[12] = day 1 single dose, monotherapy 240 mg, n=9
[13] = day 1 single dose, monotherapy 320 mg, n=7
[14] = day 1 single dose, monotherapy 380 mg, n=4
[15] = day 15, combination with tamoxifen, M2698 80 mg, n=2
[16] = day 15, combination with tamoxifen, M2698 160 mg, n=5
[17] = day 15, combination with tamoxifen, M2698 200 mg, n=6
[18] = day 15, combination with tamoxifen, M2698 240 mg (intermittent regimen), n=4
[19] = day 15, combination with trastuzumab, M2698 80 mg, n=3
[20] = day 15, combination with trastuzumab, M2698 160 mg, n=7

## NC(=O)c1cccc2c(N[C@H](CN3CCC3)c3ccc(Cl)c(C(F)(F)F)c3)ncnc12 [M2698]
[1]
  Inhibition of pS6 in tumor tissue: dose-dependently inhibits pS6 in tumor tissue
[2]; [4]
  AUC0-∞ (90% CI): 40016.18 (22818.47–70175.36) ng.h/mL
  Cmax (90% CI): 769.04 (410.14–1441.99) ng/mL
[2]; Fed, single dose of 240 mg, n=7
  AUC0-∞ (90% CI): 38626.33 (21989.80–67849.37) ng.h/mL
[2]; Fed, single dose of 240 mg, n=8
  Cmax (90% CI): 934.92 (498.61–1753.02) ng/mL
[2]; in vivo
  Food effect on the exposure of M2698: no apparent food effect
[2]; single dose of 240 mg, p=0.3917
  Cmax Fed/fasted ratio (90% CI): 1.2157 (0.8058–1.8341) p=0.3917
[2]; single dose of 240 mg, p=0.6504
  AUC0-∞ Fed/fasted ratio (90% CI): 0.9653 (0.8326–1.1191) p=0.6504
[3]; [5]
  AUC0–24, Geo mean (GeoCV%): 759 (67.2) ng∙h/mL
  Cmax, GeoMean (GeoCV%): 53.0 (91.1) ng/mL
  tmax, median (range): 3.08 (2.07–5.00) hours
[3]; [6]
  AUC0–24, Geo mean (GeoCV%): 1480 (52.9) ng∙h/mL
  Cmax, GeoMean (GeoCV%): 87.3 (55.9) ng/mL
  tmax, median (range): 4.00 (3.97–5.17) hours
[3]; [7]
  AUC0–24, Geo mean (GeoCV%): 2730 (36.3) ng∙h/mL
  Cmax, GeoMean (GeoCV%): 177 (38.3) ng/mL
  tmax, median (range): 4.08 (2.05–5.00) hours
[3]; [8]
  AUC0–24, Geo mean (GeoCV%): 4370 (85.2) ng∙h/mL
  Cmax, GeoMean (GeoCV%): 269 (114.4) ng/mL
  tmax, median (range): 4.83 (2.98–9.50) hours
[3]; [9]
  AUC0–24, Geo mean (GeoCV%): 4200 (21.0) ng∙h/mL
  Cmax, GeoMean (GeoCV%): 246 (21.7) ng/mL
  tmax, median (range): 6.08 (5.98–24.3) hours
[3]; [10]
  AUC0–24, Geo mean (GeoCV%): 8650 (49.8) ng∙h/mL
  Cmax, GeoMean (GeoCV%): 543 (65.3) ng/mL
  tmax, median (range): 4.05 (2.15–5.23) hours
[3]; [11]
  AUC0–24, Geo mean (GeoCV%): 8180 (102.8) ng∙h/mL
  Cmax, GeoMean (GeoCV%): 472 (110.1) ng/mL
  tmax, median (range): 4.60 (4.07–5.02) hours
[3]; day 1 single dose, monotherapy 240 mg, n=8 for AUC
  AUC0–24, Geo mean (GeoCV%): 9200 (74.5) ng∙h/mL
[3]; [12]
  Cmax, GeoMean (GeoCV%): 590 (81.4) ng/mL
  tmax, median (range): 6.25 (4.00–24.3) hours
[3]; day 1 single dose, monotherapy 320 mg, n=6 for AUC
  AUC0–24, Geo mean (GeoCV%): 15200 (104.0) ng∙h/mL
[3]; [13]
  Cmax, GeoMean (GeoCV%): 802 (112.0) ng/mL
  tmax, median (range): 4.73 (4.00–24.1) hours
[3]; day 1 single dose, monotherapy 380 mg, n=2 for AUC
  AUC0–24, Geo mean (GeoCV%): 16500 (36.6) ng∙h/mL
[3]; [14]
  Cmax, GeoMean (GeoCV%): 1320 (55.0) ng/mL
  tmax, median (range): 6.28 (4.12–9.52) hours
[3]; [15]
  AUC0–τ, Geo mean (GeoCV%): 16,000 (44.7) ng∙h/mL
  Accumulation ratio (Cmax), Geo mean (GeoCV%): 2.31 (20.6)
  Cmax, GeoMean (GeoCV%): 819 (50.9) ng/mL
  tmax, median (range): 4.5 (4.00–5.00) hours
[3]; [16]
  AUC0–τ, Geo mean (GeoCV%): 22,000 (42.9) ng∙h/mL
  Accumulation ratio (Cmax), Geo mean (GeoCV%): 1.98 (26.6)
  Cmax, GeoMean (GeoCV%): 1270 (48.3) ng/mL
  tmax, median (range): 3.33 (2.95–5.58) hours
[3]; [17]
  AUC0–τ, Geo mean (GeoCV%): 27,000 (29.3) ng∙h/mL
  Accumulation ratio (Cmax), Geo mean (GeoCV%): 3.47 (65.7)
  Cmax, GeoMean (GeoCV%): 1380 (31.3) ng/mL
  tmax, median (range): 3.98 (3.07–10.0) hours
[3]; [18]
  AUC0–τ, Geo mean (GeoCV%): 20,600 (41.7) ng∙h/mL
  Accumulation ratio (Cmax), Geo mean (GeoCV%): 1.7 (40.9)
  Cmax, GeoMean (GeoCV%): 1110 (39.9) ng/mL
  tmax, median (range): 3.15 (2.13–4.00) hours
[3]; [19]
  AUC0–τ, Geo mean (GeoCV%): 7400 (34.3) ng∙h/mL
  Accumulation ratio (Cmax), Geo mean (GeoCV%): 2.00 (26.1)
  Cmax, GeoMean (GeoCV%): 405 (23.7) ng/mL
  tmax, median (range): 3.07 (2.03–5.58) hours
[3]; [20]
  AUC0–τ, Geo mean (GeoCV%): 47,200 (49.3) ng∙h/mL
  Accumulation ratio (Cmax), Geo mean (GeoCV%): 2.73 (31.5)
  Cmax, GeoMean (GeoCV%): 2560 (52.8) ng/mL
  tmax, median (range): 5.88 (3.05–8.08) hours
[3]; day 15, monotherapy 15 mg, n=3
  AUC0–τ, Geo mean (GeoCV%): 2540 (6.0) ng∙h/mL
  Accumulation ratio (Cmax), Geo mean (GeoCV%): 2.57 (73.6)

Reference: publication PMC8371902, “Phase 1 study of M2698, a p70S6K/AKT dual inhibitor, in patients with advanced cancer” (Journal of Hematology & Oncology, 2021)
